These results are taken from patent US8409552B2, “Anthranillic acid amides and derivatives thereof as cosmetic and pharmaceutical active compounds” (Symrise AG, priority 2002, dated 2013).

Where two headings read alike, the source gives them in different places.

One experiment has as its system mast cells. The following applies: at 10^−3 M; cited from earlier work.
In experiment [1] the test system is Mast cells from the peritoneal tissue of rats. Nature of the experiment: Inhibition of substance P-induced release of histamine from mast cells. The experiment is classed as cell-based, rat. The following applies: for IC50: positive control, read-out: concentration for 50% inhibition of substance P-induced release of histamine; for inhibition at 0.5 µg/mL / inhibition at 5 µg/mL / inhibition at 50 µg/mL: Rattus norvegicus, Mast cell, 2 min, substance P 10 μM, 37° C., based on histamine content of cells stimulated with substance P; for inhibition at 0.5 µg/mL: 0.5 ppm synthetic substance; for inhibition at 5 µg/mL: 5 ppm synthetic substance; for inhibition at 50 µg/mL: 50 ppm synthetic substance; for activity in inhibiting substance P-induced histamine release, in words: structure/activity considerations, Tables 1a/1b. As to the method:
Stock solutions: avenanthramides 2 to 19 (structural formulae: see Table 1a) and dianthramides 20-29 (structural formulae: see Table 1b); concentration: 1% in ethanol; storage before use at 4° C.) Mast cells from the peritoneal tissue of rats were isolated by centrifuging on metrizamide and stimulated with substance P (10 μM). […] The synthetically prepared avenanthramides and dianthramides of the Formulae 2 to 29 (cf. […] Test system: The final test solutions were incubated for 2 minutes in the presence of substance P and of the reference substance (CaCl2) or of the particular sample to be tested (incubation temperature: 37° C.). Cells that had been incubated in the absence of substance P and reference or sample substance served as blank. The reaction solutions were first freed from cell constituents by centrifuging. The histamine present in the supernatant liquor was then converted to a derivative with OPT and the fluorescence of the solutions was determined photometrically (fluorometer Cytofluor 2350). […] The values for the various avenanthramides are given in Table 2 as % inhibition based on the histamine content of cells stimulated with substance P without the addition of inhibitors.

The test system of a further experiment is rat mast cells. The following applies: oral application, dose of 200 mg/kg; cited from earlier work.

Turning to `O=C([O-])c1cc(=O)c2c(OCC(O)COc3cccc4oc(C(=O)[O-])cc(=O)c34)cccc2o1.[Na+].[Na+]` [DSCG, disodium cromoglycate], in the experiment on mast cells, the “inhibition of substance P-induced histamine release” value is listed as 41%.

With `[Ca+2].[Cl-].[Cl-]` [calcium chloride, reference compound], the IC50 turned out to be 639 µM in experiment [1] (test series 3.1 (synthetic anthranilic acid amides)) and 432 µM in experiment [1] (test series 3.2 (oat fraction vs reconstituted product)).

For the compound `O=C(/C=C/c1ccc(O)c(O)c1)Nc1ccccc1C(=O)O` [compound 2], in experiment [1], the inhibition at 0.5 µg/mL is 7%; the inhibition at 5 µg/mL was 80%; the inhibition at 50 µg/mL amounted to 108%; the “activity in inhibiting substance P-induced histamine release, in words” value is recorded as “complete inhibition of the histamine release”.

In the case of `O=C(/C=C/c1ccc(O)c(O)c1)Nc1ccc(O)cc1C(=O)O` [compound 3], in experiment [1], the inhibition at 0.5 µg/mL worked out at 11%; the inhibition at 5 µg/mL came to 62%; the inhibition at 50 µg/mL was 106%; the “activity in inhibiting substance P-induced histamine release, in words” value is reported as “complete inhibition of the histamine release”.

With `COc1cc(/C=C/C(=O)Nc2ccc(O)cc2C(=O)O)ccc1O` [compound 4], in experiment [1], the inhibition at 0.5 µg/mL was found to be 3%, the inhibition at 5 µg/mL is 49% and the inhibition at 50 µg/mL worked out at 59%.

Regarding `O=C(CCc1ccc(O)cc1)Nc1ccc(O)cc1C(=O)O` [compound 5], in experiment [1], the inhibition at 0.5 µg/mL was found to be 7%, the inhibition at 5 µg/mL worked out at 17% and the inhibition at 50 µg/mL was 47%.

Consider `O=C(/C=C/c1ccc(O)cc1)Nc1cc(O)ccc1C(=O)O` [compound 6], for which, in experiment [1], the inhibition at 0.5 µg/mL is -9%, the inhibition at 5 µg/mL was determined as 1% and the inhibition at 50 µg/mL was determined as 41%.

As for `O=C(/C=C/c1ccc(O)cc1)Nc1ccc(O)cc1C(=O)O` [compound 7], in experiment [1], the inhibition at 0.5 µg/mL is 27%, the inhibition at 5 µg/mL is 26% and the inhibition at 50 µg/mL is 40%.

`O=C(CCc1ccc(O)cc1)Nc1ccccc1C(=O)O` [compound 8]: in experiment [1], the inhibition at 0.5 µg/mL was 13%, the inhibition at 5 µg/mL amounted to 26% and the inhibition at 50 µg/mL was 40%.

As for `COc1cc(/C=C/C(=O)Nc2ccccc2C(=O)O)ccc1O` [compound 9], in experiment [1], the inhibition at 0.5 µg/mL is 11%, the inhibition at 5 µg/mL was 19% and the inhibition at 50 µg/mL came out at 39%.

In the case of `O=C(/C=C/c1ccc(O)cc1)Nc1ccccc1C(=O)O` [compound 10], in experiment [1], the inhibition at 0.5 µg/mL was -10%, the inhibition at 5 µg/mL was 8% and the inhibition at 50 µg/mL amounted to 37%.

With `COc1ccc(CCC(=O)Nc2ccc(O)cc2C(=O)O)cc1OC` [compound 11], in experiment [1], the inhibition at 0.5 µg/mL was -6%, the inhibition at 5 µg/mL was 11% and the inhibition at 50 µg/mL amounted to 36%.

`O=C(/C=C/c1ccccc1)Nc1ccc(O)cc1C(=O)O` [compound 12]: in experiment [1], the inhibition at 0.5 µg/mL is -5%, the inhibition at 5 µg/mL was determined as 0% and the inhibition at 50 µg/mL is 34%.

Take `COc1ccc(/C=C/C(=O)Nc2ccc(O)cc2C(=O)O)cc1OC` [compound 13]: in experiment [1], the inhibition at 0.5 µg/mL turned out to be 17%, the inhibition at 5 µg/mL worked out at 2% and the inhibition at 50 µg/mL turned out to be 30%.

On to `COc1ccc(/C=C/C(=O)Nc2ccccc2C(=O)O)cc1` [compound 14], for which, in experiment [1], the inhibition at 0.5 µg/mL came out at 21%, the inhibition at 5 µg/mL was determined as 30% and the inhibition at 50 µg/mL amounted to 24%.

With `COc1ccc(/C=C/C(=O)Nc2ccccc2C(=O)O)cc1OC` [compound 15], in experiment [1], the inhibition at 0.5 µg/mL worked out at 23% and the inhibition at 5 µg/mL was determined as 22%.

In the case of `COC(=O)c1ccccc1NC(=O)CCc1ccc(OC)c(OC)c1` [compound 16], in experiment [1], the inhibition at 0.5 µg/mL was found to be 26%, the inhibition at 5 µg/mL was 25% and the inhibition at 50 µg/mL turned out to be 7%.

Consider `O=C(/C=C/c1ccccc1)Nc1ccccc1C(=O)O` [compound 17], for which, in experiment [1], the inhibition at 0.5 µg/mL stood at 4%, the inhibition at 5 µg/mL turned out to be 7% and the inhibition at 50 µg/mL is 6%.

Turning to `COC(=O)c1ccccc1NC(=O)/C=C/c1ccc(OC)c(OC)c1` [compound 18], in experiment [1], the inhibition at 0.5 µg/mL was 5%, the inhibition at 5 µg/mL was -3% and the inhibition at 50 µg/mL is 6%.

`COc1ccc(CCC(=O)Nc2ccccc2C(=O)O)cc1OC` [compound 19]: in experiment [1], the inhibition at 0.5 µg/mL is -15%, the inhibition at 5 µg/mL was -22% and the inhibition at 50 µg/mL was -4%.

With `O=C(Nc1ccccc1C(=O)O)c1ccc(O)c(O)c1` [compound 20, 2-[(3,4-dihydroxybenzoyl)amino]benzoic acid], in experiment [1], the inhibition at 0.5 µg/mL amounted to 14%; the inhibition at 5 µg/mL amounted to 76%; the inhibition at 50 µg/mL was 110%; the “activity in inhibiting substance P-induced histamine release, in words” value was “greatest activity”.

Take `O=C(Nc1ccc(O)cc1C(=O)O)c1ccc(O)cc1` [compound 21]: in experiment [1], the inhibition at 0.5 µg/mL was -15%, the inhibition at 5 µg/mL was found to be 48% and the inhibition at 50 µg/mL was determined as 76%.

As to `O=C(Nc1ccccc1C(=O)O)c1cc(O)c(O)c(O)c1` [compound 22, 2-[(3,4,5-trihydroxy-benzoyl)amino]benzoic acid], in experiment [1], the inhibition at 0.5 µg/mL was determined as 39%, the inhibition at 5 µg/mL was found to be 72% and the inhibition at 50 µg/mL is 71%.

`COc1ccc(C(=O)Nc2ccccc2C(=O)O)cc1O` [compound 23, 2-[(3-hydroxy-4-methoxybenzoyl)amino]-benzoic acid]: in experiment [1], the inhibition at 0.5 µg/mL turned out to be 9%, the inhibition at 5 µg/mL stood at 29% and the inhibition at 50 µg/mL worked out at 69%.

On to `O=C(Nc1ccccc1C(=O)O)c1ccc(O)cc1` [compound 24, 2-[(4-hydroxy-benzoyl)amino]benzoic acid], for which, in experiment [1], the inhibition at 0.5 µg/mL is 7%, the inhibition at 5 µg/mL is 19% and the inhibition at 50 µg/mL was determined as 55%.

For the compound `COc1cc(C(=O)Nc2ccccc2C(=O)O)ccc1O` [compound 25, 2-[(4-hydroxy-3-methoxybenzoyl)amino]-benzoic acid], in experiment [1], the inhibition at 0.5 µg/mL is 8%, the inhibition at 5 µg/mL amounted to 42% and the inhibition at 50 µg/mL came out at 51%.

Turning to `O=C(Nc1ccccc1C(=O)O)c1ccc(O)cc1O` [compound 26], in experiment [1], the inhibition at 0.5 µg/mL was -13%, the inhibition at 5 µg/mL amounted to 22% and the inhibition at 50 µg/mL was 48%.

As for `O=C(Nc1ccccc1C(=O)O)c1ccccc1` [compound 27], in experiment [1], the inhibition at 0.5 µg/mL worked out at 27%, the inhibition at 5 µg/mL came out at 28% and the inhibition at 50 µg/mL was determined as 39%.

For `O=C(Nc1ccccc1C(=O)O)c1cccc(O)c1` [compound 28, 2-[(3-hydroxy-benzoyl)amino]benzoic acid], in experiment [1], the inhibition at 0.5 µg/mL worked out at 12%, the inhibition at 5 µg/mL came out at 25% and the inhibition at 50 µg/mL worked out at 35%.

In the case of `O=C(Nc1ccccc1C(=O)O)c1ccccc1O` [compound 29], in experiment [1], the inhibition at 0.5 µg/mL was -1%, the inhibition at 5 µg/mL is 15% and the inhibition at 50 µg/mL amounted to 23%.

As to `O=C(/C=C/c1ccc(O)cc1)Nc1ccccc1C(=O)O` [substance 10, N-(4-hydroxycinnamoyl)anthranilic Acid], in the experiment with rat mast cells, the “inhibition of antigen-induced destruction of rat mast cells” value is given as 36.7%.
